Experimental data published in patent publication US20240316012A1, “METHODS FOR TREATING LYMPHOMA” (Northwestern University, priority 2023, published 2024).

Tested on: ACLY (p-ACLY^S455)
Assay: Western blot analysis of p-ACLY^S455
Assay type: cell-based, mouse
Conditions: overnight in vitro with anti-PD-L1; Wortmannin 20 nM, LY294002 20 μM; 2 μM, 10 μM
Description: FIGS. 4A-4H show ACLY is a critical effector molecule downstream of PD-1. […] ITK-SYK^+ cells were FACS-sorted from ITK-SYK^CD4-creERT2 mice on d5 after TAM and 12 h anti-PD-L1 or isotype control antibody treatment (i.p., 200 μg). P=paired two-sided Student's t-test. Data are presented as the mean±SD. […] Spleen-derived single-cell suspensions were FACS-sorted from ITK-SYK^CD4-creERT2 mice on d5 after TAM and cultured in vitro overnight with anti-PD-L1 or isotype control antibodies and the PI3K inhibitors (“iPI3K”) Wortmannin (20 nM), LY294002 (20 μM), or DMSO. […] Spleen-derived lymphocytes, FACS-sorted from ITK-SYK^CD4-creERT2 and ITK-SYK^CD4-creERT2; Pdcd1^−/− mice on d5 after TAM were incubated for three days in vitro. P=two-sided Student's t-test. Data are presented as the mean±SD. […] Protein lysates were generated after 48 h in vitro culture. RNP, ribonucleoprotein. […] P=two-sided Logrank-test. […] ITK-SYK^+ cells were FACS-sorted from ITK-SYK^CD4-creERT2 (“Pdcd1^+/+”) and ITK-SYK^CD4-creERT2; Pdcd1^−/− (“Pdcd1^−/−”) mice on d5 after TAM, fixed, and processed for anti-H3K27ac ChIP-seq analysis. ChIP-seq, chromatin immunoprecipitation sequencing; TSS, transcription start site. FIG. 4B, Representative data from three independent experiments with three biological replicates per group. FIG. 4C, Representative data from two independent experiments with two biological replicates. […]

O=c1cc(N2CCOCC2)oc2c(-c3ccccc3)cccc12 [LY294002, 2-(4-morpholinyl)-8-phenyl-4H-1-benzopyran-4-one]
p-ACLY^S455 phosphorylation induced by PD-1 inactivation: could be reversed
